Laboratory results as given in publication PMC9287337 (Scientific Reports, 2022).

Tests used:
Type in all cases: cell-based, mouse
C2C12 cells [1] = test: Live cell count (acridine orange/propidium iodide); conditions: 24 h; for Average increase in number of cells compared to control: average over 0.01–10 µM
Method: For the concentrations tested, SY-LB-35 increased the number of cells by an average of approximately 40% (Fig. 4A) and SY-LB-57 enhanced cell numbers to an average increase of 70% compared to the control (Fig. 4B). […] Moreover, both novel compounds induce a substantial proliferative effect in C2C12 cells.
C2C12 mouse myoblast cells (ATCC®, Manassas, VA, USA) were maintained in complete growth media (DMEM/10% FBS/1X Penicillin/Streptomycin/Glutamine solution (PSG)) at 37 °C in 5% CO2. DMEM media (Dulbecco’s Modified Eagle’s Medium with high glucose and L-glutamine and without sodium pyruvate) was from Caisson Labs (Smithfield, UT, USA). FBS was from Atlanta Biologicals (Flowery Branch, GA, USA). To determine the cell concentration, 18 µL cell suspension was mixed with 2 µL Acridine orange/Propidium iodide stain (Logos Biosystems, Annandale, VA, USA). Next, the cell concentration and percent viability were determined from 10 µL stained cells using the Luna-FL™ Dual Fluorescence Cell Counter from Logos Biosystems. For cell counts following treatment with SY-LB-35 or SY-LB-57, C2C12 cells (500 µL) were seeded into 24-well plates at 1 × 10^5 cells/mL, grown to 80% confluency, serum-starved for 16–18 h using Serum-Starvation Medium (SS medium: DMEM/1X Penicillin/Streptomycin solution (PS)) and treated for 24 h with the novel compounds. The treated cells were then collected by trypsinization, pelleted at 2000 rpm for 3 min at RT, resuspended and counted.

[2] = system: p-Akt cytoplasmic localization; test: Immunofluorescent labeling of p-Akt; conditions: 1 µM, 15 min
Method: To ascertain whether these novel indolyl-benzimidazole compounds can also activate non-canonical BMP-related pathways, stimulation of the PI3K/Akt pathway was assessed by first monitoring changes in the level of p-Akt in response to SY-LB-35 and SY-LB-57.

C2C12 cells [3] = test: Cell cycle analysis by flow cytometry; conditions: 24 h
Method: C2C12 cells were starved in SS medium followed by 24-h treatment with 0.01–10 µM SY-LB-35 or SY-LB-57. The distribution of cell cycle phases was analyzed with respect to the control, untreated cells (Fig. 9). […] Furthermore, the percentage of cells in G0/G1 phase decreased with respect to control following the treatment of C2C12 cells with the indolyl-benzimidazole compounds (****p < 0.0005; ***p < 0.001; **p < 0.01; Fig. 9A). Thus, SY-LB-35 and SY-LB-57 at all tested concentrations shifted the cell cycle in C2C12 cells toward proliferation causing a significant decline in the population of cells in G0/G1 phase and a sharp increase in the percentage of cells present in proliferative phases of the cell cycle (S and G2/M).
Equal numbers (~ 10^6) of cells, from each treatment counted as above were collected, fixed with 4% paraformaldehyde (PFA) for 10 min at RT and pelleted at 300 g for 5 min. Cell pellets were washed with Stain buffer (BD Pharmingen, San Diego, CA, USA) followed by permeabilization with 90% ice-cold methanol for 15 min at 4 °C. The cells were again washed with Stain buffer and the pelleted cells were stained with BD Pharmingen Propidium Iodide/RNase Staining Buffer (0.5 mL/10^6 cells) for 30 min at RT while protected from light. Following two more washes, the pellet was resuspended in 225 µL Stain buffer and the cells were divided into 3 microcentrifuge tubes (75 µL each) for analysis with the Amnis® Flowsight Imaging Flow Cytometer (Austin, TX, USA). IDEAS® software (version 6.2, Seattle, WA, USA) was used to analyse the data files.

[4] = system: type I BMP receptor-dependent p-Smad; test: Western blot of p-Smad in presence or absence of Dorsomorphin; conditions: 1 µM, 30 min; for p-Smad level, DM(+): Dorsomorphin 10 µM pretreatment 1 h; for p-Smad level, DM(−): without Dorsomorphin
Method: Total whole cell lysates were prepared and used for Western blot analysis of Smad phosphorylation using anti-p-Smad antibodies.
C2C12 cells (3 mL) were seeded into 35 mm dishes at 7.5 × 10^4 cells/mL in complete growth medium, incubated to reach 80% confluence and serum-starved for 16–18 h. […] Thereafter, the cultures were washed with ice-cold 1X TBS for 2 min. Lysis Buffer (Cell Signaling Technology, Danvers, MA, USA) supplemented with 1 mM PMSF (phenylmethylsulphonyl fluoride) was added to the cultures and whole cell lysates were prepared.
Laemmli sample buffer (4X) was added to the whole cell lysates (20 µg) to a final concentration of 1X and heated at 100 °C for 5 min. The samples were immediately cooled on ice for 5 min and centrifuged at 9500 rpm for 2 min at RT. The samples and the Precision Plus Protein Standard (5 µL; Bio-Rad, Hercules, CA, USA) were loaded on 12% SDS polyacrylamide gels. Protein was separated using the Bio-Rad Mini Protean II Gel Electrophoresis System at 135 V. Meanwhile, 0.2 µm nitrocellulose membranes were pre-incubated in cold 1X Transfer Buffer (10 mM Tris/2.5 mM glycine/20% methanol) for at least 30 min. Next, the separated proteins were transferred at 100 V onto the pre-equilibrated nitrocellulose membranes for 1 h in Transfer Buffer, followed by blocking in 5% BSA/0.1% Tween 20/1X TBS for 30 min. The membranes were incubated overnight at 4 °C with the desired primary rabbit monoclonal antibody (p-Smad1/5(S463/465)/9(S465/467), Smad1 (D5907) XP®, p-Akt (Ser473) (D9E) XP®, or Akt (pan) (C67E7), p-SAPK/JNK (Thr183/Tyr185), SAPK/JNK, β-actin (Cell Signaling Technologies, Danvers, MA, USA)) or rabbit polyclonal antibody (phospho-PI3 Kinase p85 (Tyr458)/p55 (Tyr199) antibody (Cell Signaling Technologies, Danvers, MA, USA), p-p38 MAPK, p38 MAPK, p-ERK1, ERK1/2) (Abclonal, Woburn, MA, USA)) in Antibody Dilution Buffer (1% BSA/0.1% Tween 20/1X TBS) and then washed with 1X TBST (0.1% Tween 20/1X TBS) three times for 15 min. HRP-conjugated Goat Anti-Rabbit IgG secondary antibody (Santa Cruz Biotechnology, Inc., Dallas, TX, USA) in Antibody Dilution Buffer was added to the membranes for 1 h at RT followed by three 15-min washes with 1X TBST. Finally, the blots were developed using SuperSignal ™ West Femto HRP Substrate solutions (Thermo Scientific, Rockford, IL, USA) and analysed using the Omega Lum™ G Imaging System (San Francisco, CA, USA). Quantification of chemiluminescent signals was carried out using ImageJ (Image Processing and Analysis in Java 1.8.0_112).

Compound | Cell number (C2C12 cells [1]; 0.01 µM) | Cell number (C2C12 cells [1]; 0.1 µM) | Cell number (C2C12 cells [1]; 1 µM) | Cell number (C2C12 cells [1]; 10 µM) | Average increase in number of cells compared to control (C2C12 cells [1]) | p-Akt immunofluorescent labeling [2] | Cells in G0/G1 phase (C2C12 cells [3]; 0.01 µM) [%] | Cells in G2/M phase (C2C12 cells [3]; 0.01 µM) [%] | Cells in S phase (C2C12 cells [3]; 0.01 µM) [%] | Cells in G0/G1 phase (C2C12 cells [3]; 0.1 µM) [%] | Cells in G2/M phase (C2C12 cells [3]; 0.1 µM) [%] | Cells in S phase (C2C12 cells [3]; 0.1 µM) [%] | Cells in G0/G1 phase (C2C12 cells [3]; 1 µM) [%] | Cells in G2/M phase (C2C12 cells [3]; 1 µM) [%] | Cells in S phase (C2C12 cells [3]; 1 µM) [%] | Cells in G0/G1 phase (C2C12 cells [3]; 10 µM) [%] | Cells in G2/M phase (C2C12 cells [3]; 10 µM) [%] | Cells in S phase (C2C12 cells [3]; 10 µM) [%] | p-Smad level, DM(+) [4] [%] | p-Smad level, DM(−) [4] [%]
Oc1ccc2[nH]c(-c3nc4ccccc4[nH]3)cc2c1 [SY-LB-35] | 6.8 × 10^5 cells | 6.6 × 10^5 cells | 6.8 × 10^5 cells | 6.4 × 10^5 cells | approximately 40% | robust, punctate, cytoplasmic p-Akt labeling | 76 | 13 | 11 | 76 | 12 | 12 | 77 | 11 | 12 | 76 | 11 | 12 | 112 | 315
COc1ccc2[nH]c(-c3nc4ccccc4[nH]3)cc2c1 [SY-LB-57] | 7.4 × 10^5 cells | 6.5 × 10^5 cells | 7.2 × 10^5 cells | 6.0 × 10^5 cells | 70% | robust, punctate, cytoplasmic p-Akt labeling | 76 | 13 | 13 | 76 | 11 | 14 | 77 | 11 | 12 | 79 | 10 | 13 | 111 | 172
